# Results taken from patent publication US20180327367A1, “MACROCYCLIC BROAD SPECTRUM ANTIBIOTICS” (priority 2015, published 2018).
# Like-named read-outs stand apart in the source and are kept apart here.
# What was measured:
# [1] = tested on: Escherichia coli MC4100 harboring the IMP4213 (E. coli IMP); assay: microbe, parasite or virus in culture; format: cell-based; details: Escherichia coli, 22 h, read-out: MIC (μg/mL) E. coli IMP, E. coli MC4100 IMP4213, increased outer-membrane permeability; 35° C., 22 hours
# Summary of the method: (§1)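 CLSI broth microdilution in cation-adjusted Mueller Hinton Broth with 0.002% Tween-80; inoculum final OD600 0.0005, 22 hours at 35° C. Ten 2-fold dilutions starting at 4 μg/mL (protocol 2) or 0.5 μg/mL (protocol 3).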
# [2] = target: T1, SpsB (Staphylococcus aureus signal peptidase) (Staphylococcus aureus, UniProt P0A070); assay: cell-based; format: biochemical; details: fluorogenic peptide substrate, kinetic read 30 min
# T1 construct: This assay uses a suspension of Staphylococcus aureus cells as a source of SpsB instead of recombinant SpsB protein; endogenous in cells; host or cells: S. aureus, USA300 background, overexpressing SpsB (whole-cell suspension from frozen pellets)
# Method: A kinetic fluorogenic enzyme activity assay was used to assess inhibition of SpsB (Staphylococcus aureus signal peptidase) activity and IC50s were determined. This assay uses a suspension of Staphylococcus aureus cells as a source of SpsB instead of recombinant SpsB protein.
# Cell preparation: Luria broth (LB) was inoculated with S. aureus (USA300 background, overexpressing SpsB) and shaken at 37° C. until an OD600 nm of 1.5-2.0 was reached (˜4 hr). The culture was then diluted to an OD600 nm of 1.0 with LB, aliquoted and centrifuged at 10,000×g for 2 mins. The supernatant was removed and the pellet was resuspended in phosphate buffer (1×PBS, 12.5 mg/L MgCl2, 25 mg/L CaCl2, 0.1% Tween-80) to an OD600 nm of 0.5, then centrifuged again at 10,000x g for 2 mins. The supernatant was removed and the pellets were frozen at −20° C.
# Test compounds were prepared in DMSO at a concentration of 10 mg/mL. These compound stocks were diluted into DMSO to a concentration of 25 μg/mL and serial 3-fold dilutions were made in DMSO, for a total of 11 compound concentrations. 20 nL of each compound solution was pre-spotted into a white 384-well plate (50 μL/well polypropylene, Nunc) using acoustic fluid transfer (Echo).
# Frozen S. aureus pellets were resuspended in assay buffer (1x PBS, 12.5 mg/L MgCl2, 25 mg/L CaCl2, 0.1% Tween-80) to an OD600 nm of 0.05, then mixed 1:1 (v/v) with 20 μM substrate ((Dabcyl)βAla-KPAKAAE(Edans)) in assay buffer, and this solution was added (20 μL/well) to the 384-well plate that had been pre-spotted with compound. Fluorescence intensity was then immediately read kinetically for 30 minutes with 2 minute read intervals to monitor cleavage of the internally quenched peptide substrate (excitation wavelength=340 nm, emission wavelength=490 nm, Molecular Devices Spectramax M5). Reaction rate (slope) was plotted against inhibitor concentration to derive the IC50.
# [3] = tested on: Methicillin Resistant Staphylococcus aureus strain USA 300, NRS384; assay: Minimum inhibitory concentration, broth micro-dilution (CLSI), S. aureus; format: cell-based; details: Staphylococcus aureus, MRSA / NRS 384 / USA300, 22 h, 35° C., 22 hours
# Summary of the method: as §1
# [4] = tested on: Escherichia coli ATCC 25922; assay: Minimum inhibitory concentration, broth micro-dilution (CLSI), E. coli; format: cell-based; details: Escherichia coli, ATCC25922, 22 h, 35° C., 22 hours
# [5] = SpsB IC50, whole-cell S. aureus (USA300 background, overexpressing SpsB) as SpsB source
# [6] = MRSA USA 300 NRS384, read-out: MIC (μg/mL) S. aureus
# [7] = E. coli ATCC 25922, read-out: MIC (μg/mL) E. coli
# [8] = read-out: MIC (μg/mL) S. aureus, MRSA USA 300 NRS384
# [9] = read-out: MIC (μg/mL) E. coli, E. coli ATCC 25922
# T1 sequence (P0A070 whole entry): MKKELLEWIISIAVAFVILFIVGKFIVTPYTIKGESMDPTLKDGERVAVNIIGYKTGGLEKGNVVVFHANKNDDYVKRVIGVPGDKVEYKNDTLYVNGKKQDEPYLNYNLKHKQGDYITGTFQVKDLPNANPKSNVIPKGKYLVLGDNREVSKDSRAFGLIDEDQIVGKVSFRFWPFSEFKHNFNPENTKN
SMILES,MIC [1] [µg/mL],"IC50 [2, 5] [nM]","MIC [3, 6] [µg/mL]","MIC [4, 7] [µg/mL]","MIC [3, 8] [µg/mL]","MIC [4, 9] [µg/mL]","IC50 ([2]; read-out: SpsB IC50, whole-cell S. aureus (USA300 background, overexpressing SpsB) as SpsB source) [nM]"
CCCCCCCCCCNCCC(=O)N[C@@H](CCCCN)C(=O)N(C)[C@@H]1C(=O)N[C@@H](C)C(=O)N[C@H](C(=O)NCC#N)Cc2ccc(OCCN)c(c2)-c2cc1ccc2OCCN [Compound 101],1.7,0.72,0.094,48,,,
CCCCCCCCCCCCC(=O)N[C@@H](CCN)C(=O)N(C)[C@@H]1C(=O)N[C@@H](C)C(=O)N[C@H](C(=O)NCC#N)Cc2ccc(OCCN)c(c2)-c2cc1ccc2OCCN [Compound 102],0.0078,0.52,0.023,0.25,,,
CCCCCCCCCCCC(=O)N[C@@H](CCN)C(=O)N(C)[C@@H]1C(=O)N[C@@H](C)C(=O)N[C@H](C(=O)NCC#N)Cc2ccc(OCCN)c(c2)-c2cc1ccc2OCCN [Compound 103],0.0078,0.57,0.023,1,,,
CCCCCCCCCCC(=O)N[C@@H](CCN)C(=O)N(C)[C@@H]1C(=O)N[C@@H](C)C(=O)N[C@H](C(=O)NCC#N)Cc2ccc(OCCN)c(c2)-c2cc1ccc2OCCN [Compound 104],0.023,0.5,0.047,4,,,
CCCCCCCCCC(=O)N[C@@H](CCN)C(=O)N(C)[C@@H]1C(=O)N[C@@H](C)C(=O)N[C@H](C(=O)NCC#N)Cc2ccc(OCCN)c(c2)-c2cc1ccc2OCCN [Compound 105],0.031,0.82,0.13,8,,,
CCCCCCCCC(=O)N[C@@H](CCN)C(=O)N(C)[C@@H]1C(=O)N[C@@H](C)C(=O)N[C@H](C(=O)NCC#N)Cc2ccc(OCCN)c(c2)-c2cc1ccc2OCCN [Compound 106],0.13,1.7,0.38,24,,,
CCCCCCCC(=O)N[C@@H](CCN)C(=O)N(C)[C@@H]1C(=O)N[C@@H](C)C(=O)N[C@H](C(=O)NCC#N)Cc2ccc(OCCN)c(c2)-c2cc1ccc2OCCN [Compound 107],0.38,4,1,32,,,
C[C@@H]1NC(=O)[C@@H](N(C)C(=O)[C@H](CCCCN)NC(=O)c2ccc(-c3ccc(C(C)(C)C)cc3)cc2)c2ccc(OCCN)c(c2)-c2cc(ccc2OCCN)C[C@@H](C(=O)NCC#N)NC1=O [Compound 108],0.047,1.2,,,0.063,0.5,
COc1ccc(-c2ccc(C(=O)N[C@@H](CCCCN)C(=O)N(C)[C@@H]3C(=O)N[C@@H](C)C(=O)N[C@H](C(=O)NCC#N)Cc4ccc(OCCN)c(c4)-c4cc3ccc4OCCN)cc2)cc1OC [Compound 109],1,7.5,2,> 64,,,
C[C@@H]1NC(=O)[C@@H](N(C)C(=O)[C@H](CCCCN)NC(=O)c2ccc(/C=C/c3ccccc3)cc2)c2ccc(OCCN)c(c2)-c2cc(ccc2OCCN)C[C@@H](C(=O)NCC#N)NC1=O [Compound 110],0.063,0.96,,,0.19,8,
C[C@@H]1NC(=O)[C@@H](N(C)C(=O)[C@H](CCCCN)NC(=O)c2ccc(-c3cc(Cl)cc(Cl)c3)cc2)c2ccc(OCCN)c(c2)-c2cc(ccc2OCCN)C[C@@H](C(=O)NCC#N)NC1=O [Compound 111],0.13,1,,,0.13,8,
C[C@@H]1NC(=O)[C@@H](N(C)C(=O)[C@H](CCCCN)NC(=O)c2ccc(-c3ccc(C(F)(F)F)cc3)cc2)c2ccc(OCCN)c(c2)-c2cc(ccc2OCCN)C[C@@H](C(=O)NCC#N)NC1=O [Compound 112],0.13,0.77,,,0.13,8,
C[C@@H]1NC(=O)[C@@H](N(C)C(=O)[C@H](CCCCN)NC(=O)c2cccc(-c3ccc(Cl)cc3)c2)c2ccc(OCCN)c(c2)-c2cc(ccc2OCCN)C[C@@H](C(=O)NCC#N)NC1=O [Compound 113],0.13,0.51,,,0.19,32,
C[C@@H]1NC(=O)[C@@H](N(C)C(=O)[C@H](CCCCN)NC(=O)c2ccccc2-c2ccc(Cl)cc2)c2ccc(OCCN)c(c2)-c2cc(ccc2OCCN)C[C@@H](C(=O)NCC#N)NC1=O [Compound 114],2,6.1,,,2,> 64,
C[C@@H]1NC(=O)[C@@H](N(C)C(=O)[C@H](CCCCN)NC(=O)c2ccc(Oc3ccc(Cl)cc3)cc2)c2ccc(OCCN)c(c2)-c2cc(ccc2OCCN)C[C@@H](C(=O)NCC#N)NC1=O [Compound 116],0.063,1.3,,,0.13,12,
C[C@@H]1NC(=O)[C@@H](N(C)C(=O)[C@H](CCCCN)NC(=O)Cc2ccc(-c3ccc(Cl)cc3)cc2)c2ccc(OCCN)c(c2)-c2cc(ccc2OCCN)C[C@@H](C(=O)NCC#N)NC1=O [Compound 117],0.5,2,,,0.13,> 64,
C[C@@H]1NC(=O)[C@@H](N(C)C(=O)[C@H](CCCCN)NC(=O)c2ccc(-c3ccc(-c4ccccc4)cc3)cc2)c2ccc(OCCN)c(c2)-c2cc(ccc2OCCN)C[C@@H](C(=O)NCC#N)NC1=O [Compound 118],0.031,1.4,,,0.063,0.75,
C[C@@H]1NC(=O)[C@@H](N(C)C(=O)[C@H](CCN)NC(=O)c2ccc(C#Cc3ccccc3)cc2)c2ccc(OCCN)c(c2)-c2cc(ccc2OCCN)C[C@@H](C(=O)NCC#N)NC1=O [Compound 120],0.016,1,,,0.094,0.44,
C[C@@H]1NC(=O)[C@@H](N(C)C(=O)[C@H](CCN)NC(=O)c2ccc(CCc3ccccc3)cc2)c2ccc(OCCN)c(c2)-c2cc(ccc2OCCN)C[C@@H](C(=O)NCC#N)NC1=O [Compound 121],0.023,1.2,,,0.13,2,
C[C@@H]1NC(=O)[C@@H](N(C)C(=O)[C@H](CCN)NC(=O)c2ccc(-c3ccc(-c4ccccc4)cc3)cc2)c2ccc(OCCN)c(c2)-c2cc(ccc2OCCN)C[C@@H](C(=O)NCC#N)NC1=O [Compound 122],0.031,1.6,,,0.063,0.25,
CCCCC1CCC(C(=O)N[C@@H](CCN)C(=O)N(C)[C@@H]2C(=O)N[C@@H](C)C(=O)N[C@H](C(=O)NCC#N)Cc3ccc(OCCN)c(c3)-c3cc2ccc3OCCN)CC1 (stereo partly drawn) [Compound 123],0.0078,,0.19,0.5,,,1.2
CCCCc1ccc(C#CC(=O)N[C@@H](CCN)C(=O)N(C)[C@@H]2C(=O)N[C@@H](C)C(=O)N[C@H](C(=O)NCC#N)Cc3ccc(OCCN)c(c3)-c3cc2ccc3OCCN)cc1 [Compound 124],0.031,1.6,0.13,2,,,
CCCCc1ccc(C(=O)N[C@@H](CCCN)C(=O)N(C)[C@@H]2C(=O)N[C@@H](C)C(=O)N[C@H](C(=O)NCC#N)Cc3ccc(OCCN)c(c3)-c3cc2ccc3OCCN)cc1 [Compound 127],0.063,5.9,0.5,4,,,
CCCCCCCCCCNCCC(=O)N[C@@H](CCN)C(=O)N(C)[C@@H]1C(=O)N[C@@H](C)C(=O)N[C@H](C(=O)NCC#N)Cc2ccc(OCCN)c(c2)-c2cc1ccc2OCCN [Compound 129],0.094,0.67,0.023,4,,,
